Results taken from ChEMBL document CHEMBL1795217, “New vasorelaxant indole alkaloids, villocarines A-D from Uncaria villosa” (Bioorg Med Chem, 2011).
Calls of active or inactive are those of the source.

Experiments:
Aorta [1] = test: Vasorelaxant activity in endothelium denuded Wistar rat thoracic aortic rings assessed as inhibition of calcium-induced contraction at 30 uM in presence of Ca2+-free K+-rich medium; format: functional, tissue-based
Aorta [2] = test: Vasorelaxant activity in endothelium denuded Wistar rat thoracic aortic rings assessed as inhibition of phenylephrine-induced contraction at 30 uM; format: functional, tissue-based
Aorta [3] = test: Vasorelaxant activity in Wistar rat thoracic aortic rings with endothelium assessed as inhibition of phenylephrine-induced contraction at 30 uM measured 10 to 30 mins within compound dosing; format: functional, tissue-based
Aorta [4] = test: Vasorelaxant activity in endothelium denuded Wistar rat thoracic aortic rings assessed as inhibition of phenylephrine-induced contraction at 30 uM in presence of Ca2+-free medium pre-incubated with 1 uM phenylephrine abd 1 uM nicardipine

Measured: Activity

C/C=C1/CN2CCc3c([nH]c4ccccc34)[C@H]2C[C@@H]1/C(=C\OC)C(=O)OC
active: Aorta [1] | Aorta [2] | Aorta [3] | Aorta [4]
